Test results taken from patent US8802864B2, “Triazolones as fatty acid synthase inhibitors” (GlaxoSmithKline LLC, priority 2010, dated 2014).

molecular target: T1, FAS (Homo sapiens (Human), UniProt P49327); assay: not given; settings: inhibition of FAS; tested by one of the two FAS assays; value from at least one experiment or the average of multiple experiments
T1 sequence (P49327 whole entry): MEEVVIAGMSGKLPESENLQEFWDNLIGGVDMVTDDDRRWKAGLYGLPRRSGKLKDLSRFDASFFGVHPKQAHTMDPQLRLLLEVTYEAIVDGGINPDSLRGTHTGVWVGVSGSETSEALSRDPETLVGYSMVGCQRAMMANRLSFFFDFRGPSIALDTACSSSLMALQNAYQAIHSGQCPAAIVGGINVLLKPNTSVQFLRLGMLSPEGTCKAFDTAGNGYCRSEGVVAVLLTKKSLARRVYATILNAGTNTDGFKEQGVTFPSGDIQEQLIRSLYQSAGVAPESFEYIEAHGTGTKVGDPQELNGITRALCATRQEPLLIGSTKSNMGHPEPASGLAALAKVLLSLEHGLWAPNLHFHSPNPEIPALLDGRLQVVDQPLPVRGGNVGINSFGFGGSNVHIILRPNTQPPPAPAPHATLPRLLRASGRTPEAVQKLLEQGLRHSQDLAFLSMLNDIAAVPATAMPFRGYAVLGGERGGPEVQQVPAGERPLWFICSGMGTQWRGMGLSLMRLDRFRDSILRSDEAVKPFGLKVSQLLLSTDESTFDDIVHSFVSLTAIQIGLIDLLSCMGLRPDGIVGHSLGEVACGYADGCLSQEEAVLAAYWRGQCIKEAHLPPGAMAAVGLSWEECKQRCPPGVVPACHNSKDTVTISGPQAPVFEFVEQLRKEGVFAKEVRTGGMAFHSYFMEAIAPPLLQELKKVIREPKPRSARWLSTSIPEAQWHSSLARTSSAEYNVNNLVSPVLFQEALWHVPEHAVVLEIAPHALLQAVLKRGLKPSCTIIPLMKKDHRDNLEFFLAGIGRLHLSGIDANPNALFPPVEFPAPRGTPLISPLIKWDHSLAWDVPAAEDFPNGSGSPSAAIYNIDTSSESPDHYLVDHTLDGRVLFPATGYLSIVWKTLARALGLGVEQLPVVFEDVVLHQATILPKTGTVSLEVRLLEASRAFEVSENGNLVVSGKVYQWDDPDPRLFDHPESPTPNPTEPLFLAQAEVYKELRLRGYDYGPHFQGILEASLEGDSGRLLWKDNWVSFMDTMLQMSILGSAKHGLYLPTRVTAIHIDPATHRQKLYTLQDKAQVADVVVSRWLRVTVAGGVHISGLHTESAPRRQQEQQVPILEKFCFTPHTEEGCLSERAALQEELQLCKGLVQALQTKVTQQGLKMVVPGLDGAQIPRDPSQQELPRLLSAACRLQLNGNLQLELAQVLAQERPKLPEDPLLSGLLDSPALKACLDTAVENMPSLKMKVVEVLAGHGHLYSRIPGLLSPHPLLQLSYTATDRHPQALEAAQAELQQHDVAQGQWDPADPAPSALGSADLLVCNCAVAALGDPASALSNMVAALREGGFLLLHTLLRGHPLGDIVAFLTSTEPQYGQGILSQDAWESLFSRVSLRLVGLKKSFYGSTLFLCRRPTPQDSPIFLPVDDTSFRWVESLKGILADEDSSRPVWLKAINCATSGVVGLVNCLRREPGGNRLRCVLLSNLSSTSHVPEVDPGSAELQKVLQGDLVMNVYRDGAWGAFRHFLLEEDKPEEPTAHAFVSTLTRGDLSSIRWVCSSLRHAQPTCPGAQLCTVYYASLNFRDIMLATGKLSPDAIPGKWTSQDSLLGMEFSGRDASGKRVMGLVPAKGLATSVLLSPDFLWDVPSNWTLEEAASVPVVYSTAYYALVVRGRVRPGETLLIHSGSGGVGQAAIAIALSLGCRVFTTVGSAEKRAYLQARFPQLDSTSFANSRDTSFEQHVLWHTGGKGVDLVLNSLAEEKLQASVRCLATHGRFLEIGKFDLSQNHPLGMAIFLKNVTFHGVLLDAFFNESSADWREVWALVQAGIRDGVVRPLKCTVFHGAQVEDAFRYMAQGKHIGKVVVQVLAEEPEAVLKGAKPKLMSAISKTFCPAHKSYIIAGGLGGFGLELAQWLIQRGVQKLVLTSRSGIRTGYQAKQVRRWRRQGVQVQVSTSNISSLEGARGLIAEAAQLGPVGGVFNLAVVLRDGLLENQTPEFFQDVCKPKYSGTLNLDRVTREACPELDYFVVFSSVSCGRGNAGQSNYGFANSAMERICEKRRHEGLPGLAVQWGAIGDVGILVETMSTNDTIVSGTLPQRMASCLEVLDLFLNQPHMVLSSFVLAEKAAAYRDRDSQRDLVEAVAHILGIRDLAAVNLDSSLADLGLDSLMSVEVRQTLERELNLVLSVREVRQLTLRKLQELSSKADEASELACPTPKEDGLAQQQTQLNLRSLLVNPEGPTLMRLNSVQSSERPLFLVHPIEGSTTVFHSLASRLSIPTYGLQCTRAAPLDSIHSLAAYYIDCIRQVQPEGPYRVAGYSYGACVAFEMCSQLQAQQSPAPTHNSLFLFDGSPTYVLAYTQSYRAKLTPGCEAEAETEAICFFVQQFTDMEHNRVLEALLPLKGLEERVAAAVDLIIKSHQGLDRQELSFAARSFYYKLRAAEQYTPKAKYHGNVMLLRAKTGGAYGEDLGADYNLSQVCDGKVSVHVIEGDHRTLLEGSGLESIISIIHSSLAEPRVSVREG

Going from `COc1ccc(-c2ccc(-n3c(C[C@@H]4CCN(C(=O)C5CC5)C4)n[nH]c3=O)c(F)c2)cc1` [Example 116, 5-{[(3S)-1-(cyclopropylcarbonyl)-3-pyrrolidinyl]methyl}-4-[3-fluoro-4′-(methyloxy)-4-biphenylyl]-2,4-dihydro-3H-1,2,4-triazol-3-one] to `CC(=O)Nc1ccc(-c2ccc(-n3c(C[C@@H]4CCN(C(=O)C5CC5)C4)n[nH]c3=O)c(F)c2)cc1` [Example 158, N-[4′-(3-{[(3S)-1-(cyclopropylcarbonyl)-3-pyrrolidinyl]methyl}-5-oxo-1,5-dihydro-4H-1,2,4-triazol-4-yl)-3′-fluoro-4-biphenylyl]acetamide], the IC50 rises from 40 nM to 398 nM (9.9-fold). The first is the more potent here.

Going from `Cc1cc(-c2ccc3cc[nH]c3c2)ccc1-n1c(C[C@@H]2CCN(C(=O)C3CC3)C2)n[nH]c1=O` [Example 42, 5-{[(3S)-1-(cyclopropylcarbonyl)-3-pyrrolidinyl]methyl}-4-[4-(1H-indol-6-yl)-2-methylphenyl]-2,4-dihydro-3H-1,2,4-triazol-3-one] to `O=C(C1CC1)N1CC(Cc2n[nH]c(=O)n2-c2ccc(-c3ccc4cc[nH]c4c3)cc2)C1` [Example 67, 5-{[1-(cyclopropylcarbonyl)-3-azetidinyl]methyl}-4-[4-(1H-indol-6-yl)phenyl]-2,4-dihydro-3H-1,2,4-triazol-3-one], the IC50 rises from 5 nM to 16 nM (3.2-fold). The first is the more potent here.

Going from `Cn1cnc2cc(-c3ccc(-n4c(C[C@@H]5CCN(C(=O)C6CC6)C5)n[nH]c4=O)cc3)ccc21` [Example 23, 5-{[(3S)-1-(cyclopropylcarbonyl)-3-pyrrolidinyl]methyl}-4-[4-(1-methyl-1H-benzimidazol-5-yl)phenyl]-2,4-dihydro-3H-1,2,4-triazol-3-one] to `O=C(C1CC1)N1CC[C@@H](Cc2n[nH]c(=O)n2-c2ccc(-c3ccc4ccoc4c3)cc2)C1` [Example 14, 4-[4-(1-benzofuran-6-yl)phenyl]-5-{[(3S)-1-(cyclopropylcarbonyl)-3-pyrrolidinyl]methyl}-2,4-dihydro-3H-1,2,4-triazol-3-one], the IC50 falls from 13 nM to 6 nM (2.2-fold).

`O=C(C1CC1)N1CC[C@@H](Cc2n[nH]c(=O)n2-c2ccc(-c3ccc4c(c3)OCO4)cc2)C1` [Example 38, 4-[4-(1,3-benzodioxol-5-yl)phenyl]-5-{[(3S)-1-(cyclopropylcarbonyl)-3-pyrrolidinyl]methyl}-2,4-dihydro-3H-1,2,4-triazol-3-one] and `CN(C)Cc1ccc(-c2ccc(-n3c(C[C@@H]4CCN(C(=O)C5CC5)C4)n[nH]c3=O)cc2)cc1` [Example 95, 5-{[(3S)-1-(cyclopropylcarbonyl)-3-pyrrolidinyl]methyl}-4-{4′-[(dimethylamino)methyl]-4-biphenylyl}-2,4-dihydro-3H-1,2,4-triazol-3-one] are within 1.5-fold of each other in IC50: 158 nM for the first, 200 nM for the second.

Compared with `O=C(C1CC1)N1CC[C@@H](Cc2n[nH]c(=O)n2-c2ccc(-c3ccc4cnccc4c3)cc2F)C1` [Example 132, 5-{[(3S)-1-(cyclopropylcarbonyl)-3-pyrrolidinyl]methyl}-4-[2-fluoro-4-(6-isoquinolinyl)phenyl]-2,4-dihydro-3H-1,2,4-triazol-3-one], `Cn1nc(C[C@@H]2CCN(C(=O)C3CC3)C2)n(-c2ccc(-c3ccc4occc4c3)cc2)c1=O` [Example 7, 4-[4-(1-benzofuran-5-yl)phenyl]-5-{[(3S)-1-(cyclopropylcarbonyl)-3-pyrrolidinyl]methyl}-2-methyl-2,4-dihydro-3H-1,2,4-triazol-3-one] is 6.7-fold higher in IC50: 3 nM for the first, 20 nM for the second. The first is the more potent here.

molecular target: T1, FAS; assay: biochemical; settings: not given

With `N#Cc1ccc(-c2ccc(-n3c(C[C@@H]4CCN(C(=O)C5CC5)C4)n[nH]c3=O)cc2)cc1` [Example 4, 4′-(3-{[(3S)-1-(cyclopropylcarbonyl)-3-pyrrolidinyl]methyl}-5-oxo-1,5-dihydro-4H-1,2,4-triazol-4-yl)-4-biphenylcarbonitrile] the IC50 was 126 nM.
